In patent US7498303B2, “GNRH analogues for treatment of urinary incontinence” (priority 2000, dated 2009):
Where “and” joins values, the source holds several entries; their conditions need not be identical. Equal entries are not always repeated. Structures can show the parent of a compound that is named as a salt.

How the values were obtained:
[1] = tested on: excessive growth of the undercoat (baby coat) due to spaying; test: Excessive growth of the undercoat due to spaying in cocker spaniel bitches; format: in vivo, dog; conditions: 5 mg slow release s.c. implant
Procedure: Two cocker spaniel bitches belonging to the same owner were showing excessive growth of the undercoat due to spaying. […] Both dogs were first clinically examined and thereafter a GnRH analogue (Deslorelin) in a dosage of 5 mg, in slow release form, was subcutaneously implanted between the shoulder blades.

[2] = tested on: urinary incontinence after spaying; test: GnRH analogue slow release implant in bitches with urinary incontinence after spaying; format: in vivo, dog; conditions: slow release s.c. implant
Procedure: Additionally, for a limited period the dogs were treated with phenylpropanolamine in a dosage of 1.5 mg/kg BW tid orally.
After discontinuation of the shortacting phenylpropanolamine 8 bitches remained continent. Their continence was therefore achieved solely by the treatment with the composition as described in the present invention. Seven out of fifteen dogs seemed to be much happier and in none of the dogs did the general condition deteriorate. […] The respective results are shown in more detail in table 1.

stress incontinence = test: Menopausal person with stress incontinence, 24 hour pad test; format: in vivo, human; conditions: single dose of 3.75 mg, one person
Procedure: A second menopausal person, suffering from stress incontinence for at least 6 years, was treated with a single dose of 3.75 mg of leuprolide acetate. 24 hour pad tests conducted prior to treatment with the drug indicated they lost between 10 and 130 ml of urine on a daily basis due to their incontinence.

urinary incontinence = test: Double-blind, placebo-control study in client owned dogs suffering from urinary incontinence; format: in vivo, dog
Procedure: In a second ongoing study, 16 client owned dogs suffering from urinary incontinence were enrolled in a double-blind, placebo-control study. In the initial phase of the study, dogs were randomly assigned to treatment with a long-acting GnRH analogue (leuprolide acetate) or placebo (dog owners and the investigators were blinded to treatment) along with a short course of therapy with phenylpropanolamine. 5 weeks after treatment with drug or placebo, dogs were evaluated and, if not fully continent, treated with a long-acting GnRH analogue (leuprolide acetate) in an open label phase of the study. To date only 1 of 10 dogs treated with placebo became continent vs. […] treated with drug during the blinded portion of the study. Overall, the results generated thus far indicate […] dogs treated with the long-acting GnRH analogue became continent and […] improved after discontinuation of the short acting phenylpropanolamine. Only 1 dog of 15 treated with the GnRH analogue was considered not to have improved following treatment with the drug.

[3] = tested on: urinary incontinence of the bitch; conditions: 1.5 mg/kg BW p.o., given every 8 hours; cited from earlier work
[4] = tested on: urge incontinence and hotflushes; test: Perimenopausal person with urge incontinence and hot flushes; format: in vivo, human; conditions: 3.75 mg; one perimenopausal person
[5] = 11,25 mg, without PPA, one dog per line, listed as Leuprorelin acetate
[6] = 6,3 mg, without PPA, one dog per line
[7] = 6 mg, without PPA, one dog per line
[8] = 12 mg, with PPA, one dog per line
[9] = 12 mg, without PPA, one dog per line

For `CCNC(=O)[C@@H]1CCCN1C(=O)[C@H](CCCN=C(N)N)NC(=O)[C@H](CC(C)C)NC(=O)[C@@H](Cc1c[nH]c2ccccc12)NC(=O)[C@H](Cc1ccc(O)cc1)NC(=O)[C@H](CO)NC(=O)[C@H](Cc1c[nH]c2ccccc12)NC(=O)[C@H](Cc1cnc[nH]1)NC(=O)[C@@H]1CCC(=O)N1` [Deslorelin], the Coat quality ([1]; 5 weeks after the injection, both of two dogs) was “obvious amelioration of the coat quality” and the “Signs of baby coat” value ([1]; 21 weeks after injection, two dogs) was “no signes of “baby coat” were apparent anymore”.

For `CCNC(=O)[C@@H]1CCCN1C(=O)[C@H](CCCNC(=N)N)NC(=O)[C@H](CC(C)C)NC(=O)[C@@H](CC(C)C)NC(=O)[C@H](Cc1ccc(O)cc1)NC(=O)[C@H](CO)NC(=O)[C@H](Cc1c[nH]c2ccccc12)NC(=O)[C@H](Cc1c[nH]cn1)NC(=O)[C@@H]1CCC(=O)N1` [Leuprorelinacetate, leuprolide acetate], the “Duration of effect after treatment” value ([2]; 11,25 mg, with PPA, one dog) was greater than 64 days, the Effect on incontinence ([2]; 11,25 mg, with PPA, one dog) was 100% and the “Duration of effect after treatment” value ([2]; 11,25 mg, without PPA, one dog per line) was 0 days. For the same compound, the “Duration of effect after treatment” value [2, 5] was greater than 14 days, the Effect on incontinence [2, 5] was 100% and the “Daily urine loss, pad test” value (stress incontinence; 2 weeks after treatment, before treatment 10 to 130 ml daily) was 1 mL. For the same compound, the “Patient's judgement of the effects of the therapy” value (stress incontinence) was “very satisfied”, the “Dogs that became continent during the blinded portion of the study” value (urinary incontinence; long-acting, with short course of phenylpropanolamine, evaluated 5 weeks after treatment, placebo 1 of 10) was 3 to 8 dogs and the “Dogs considered not to have improved following treatment” value (urinary incontinence; of 15 treated) was 1 dog. The “Dogs that became continent after discontinuation of phenylpropanolamine (overall)” value (urinary incontinence; of 15 treated, blinded and open label phases, ongoing study) was 6 dogs and the “Remaining dogs that improved after discontinuation of phenylpropanolamine” value (urinary incontinence; of 15 treated, ongoing study) was 9 dogs.

In the case of `CN[C@@H](C)[C@H](O)c1ccccc1` [ephedrinhydrochloride], the Continence achieved [3] is listed as 74%.

For `CC(N)C(O)c1ccccc1` (centres unmarked) [phenylpropanolamine], the Continence achieved [3] is listed as 74%.

In the case of Buserelin acetate [Buserelinacetate], the “Duration of effect after treatment” value [2, 6] is reported as 44 days and 83 days and the Effect on incontinence [2, 6] is reported as 100%.

For Deslorelin acetate [Deslorelinacetate], the Side effects ([2]; 6 mg, one dog per line) was “More playfull”, the “Duration of effect after treatment” value ([2]; 6 mg, with PPA, one dog) was greater than 336 days and the Effect on incontinence ([2]; 6 mg, with PPA, one dog per line) was 100%. The “Duration of effect after treatment” value [2, 7] was >47 days and >344 days and >340 days, the Effect on incontinence [2, 7] was 100% and the “Duration of effect after treatment” value [2, 8] was 135 days and >318 days and >225 days. For the same compound, the Effect on incontinence [2, 8] was 80% and 100% (2×), the “Duration of effect after treatment” value [2, 9] was 64 days and >64 days and >209 days and the Effect on incontinence [2, 9] was 100%.

With “Triptorelin acetate [Triptorelinacetate]” the “Duration of effect after treatment” value ([2]; 3,75 mg, footnote: dose too low, one dog) was 0, the “Period of improvement of both symptoms” value [4] was “about 4 weeks” and the “Urge incontinence and hotflushes, patient report” value [4] was “improved considerably”.
